Results on two compounds are retold here after patent US11174245B2, “Benzimidazole compounds and derivatives as EGFR inhibitors” (Boehringer Ingelheim International GmbH, priority 2018, dated 2021).

EGFR wt, sequence (P00533 25-1210): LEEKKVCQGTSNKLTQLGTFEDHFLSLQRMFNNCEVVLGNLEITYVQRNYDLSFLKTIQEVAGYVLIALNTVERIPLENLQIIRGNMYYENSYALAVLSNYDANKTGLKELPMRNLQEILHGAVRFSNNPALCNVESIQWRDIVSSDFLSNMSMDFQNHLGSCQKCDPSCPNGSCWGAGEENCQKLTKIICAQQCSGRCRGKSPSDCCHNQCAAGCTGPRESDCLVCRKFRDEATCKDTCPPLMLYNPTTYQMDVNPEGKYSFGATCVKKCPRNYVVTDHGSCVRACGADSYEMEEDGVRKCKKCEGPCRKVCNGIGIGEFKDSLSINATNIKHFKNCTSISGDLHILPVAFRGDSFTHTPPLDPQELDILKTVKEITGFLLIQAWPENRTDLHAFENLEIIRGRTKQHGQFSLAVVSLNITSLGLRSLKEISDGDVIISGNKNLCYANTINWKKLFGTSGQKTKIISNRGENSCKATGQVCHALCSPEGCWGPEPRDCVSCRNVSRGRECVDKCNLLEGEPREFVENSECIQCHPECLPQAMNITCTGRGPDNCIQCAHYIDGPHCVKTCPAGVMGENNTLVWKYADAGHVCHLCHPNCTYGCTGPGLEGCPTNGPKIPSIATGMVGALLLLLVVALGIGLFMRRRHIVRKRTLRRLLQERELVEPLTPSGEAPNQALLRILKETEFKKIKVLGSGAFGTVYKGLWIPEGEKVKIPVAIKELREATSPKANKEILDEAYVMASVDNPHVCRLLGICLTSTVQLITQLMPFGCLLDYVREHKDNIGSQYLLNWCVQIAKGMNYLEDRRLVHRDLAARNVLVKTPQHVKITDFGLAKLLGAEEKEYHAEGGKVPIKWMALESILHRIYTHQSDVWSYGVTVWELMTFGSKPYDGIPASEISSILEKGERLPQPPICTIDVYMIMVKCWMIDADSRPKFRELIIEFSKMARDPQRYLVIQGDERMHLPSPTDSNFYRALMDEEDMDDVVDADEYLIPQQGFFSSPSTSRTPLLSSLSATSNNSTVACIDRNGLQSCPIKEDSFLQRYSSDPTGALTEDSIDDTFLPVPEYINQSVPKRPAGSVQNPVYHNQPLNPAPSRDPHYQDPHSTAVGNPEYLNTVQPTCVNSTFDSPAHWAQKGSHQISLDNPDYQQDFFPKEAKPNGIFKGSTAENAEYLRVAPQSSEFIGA
EGFR (mutated) 695-1022, T790M, C797S, L858R, sequence (P00533 695-1022 T790M/C797S/L858R): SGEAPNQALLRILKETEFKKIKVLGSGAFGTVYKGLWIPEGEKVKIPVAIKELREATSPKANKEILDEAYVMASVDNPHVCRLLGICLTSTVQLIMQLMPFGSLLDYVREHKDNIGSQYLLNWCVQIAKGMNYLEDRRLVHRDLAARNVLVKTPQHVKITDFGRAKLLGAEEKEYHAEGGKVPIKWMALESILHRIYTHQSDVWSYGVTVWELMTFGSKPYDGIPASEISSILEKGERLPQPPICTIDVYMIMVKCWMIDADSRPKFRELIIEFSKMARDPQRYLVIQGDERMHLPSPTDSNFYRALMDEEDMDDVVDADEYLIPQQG
EGFR (d746-750 T790M C797S), sequence (P00533 other isoform, or with tags, fused parts or gaps T790M/C797S/del 1-694/del 746-750 limits assumed): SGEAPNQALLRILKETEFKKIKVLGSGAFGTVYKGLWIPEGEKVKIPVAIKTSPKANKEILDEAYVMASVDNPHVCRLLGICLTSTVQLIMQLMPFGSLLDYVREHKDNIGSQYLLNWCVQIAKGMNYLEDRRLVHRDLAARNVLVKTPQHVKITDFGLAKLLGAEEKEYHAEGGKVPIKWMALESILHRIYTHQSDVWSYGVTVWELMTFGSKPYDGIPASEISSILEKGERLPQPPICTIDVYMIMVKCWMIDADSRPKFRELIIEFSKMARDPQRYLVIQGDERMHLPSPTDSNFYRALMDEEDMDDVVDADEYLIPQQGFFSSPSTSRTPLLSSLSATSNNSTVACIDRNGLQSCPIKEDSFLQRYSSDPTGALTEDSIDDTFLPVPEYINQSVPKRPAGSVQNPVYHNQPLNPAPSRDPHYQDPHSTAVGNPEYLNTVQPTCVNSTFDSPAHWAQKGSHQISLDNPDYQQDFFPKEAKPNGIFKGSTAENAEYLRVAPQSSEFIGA

The test system of the first experiment is Ba/F3 cells driven by EGFR mutants. The experiment in a line: Ba/F3 proliferation assay (CellTiter-Glo viability), EGFR mutant alleles. Conditions: Mus musculus, BaF3, Ba/F3 EGFR L858R C797S, read-out: IC50 EGFR L858R C797S. The class given is cell-based, murine. As for the experimental part:
(§1) Ba/F3 Cell Model Generation and Proliferation Assays
(§2) Plasmids containing EGFR mutants were obtained from GeneScript. To generate EGFR-dependent […] were transduced with retroviruses containing vectors that harbor EGFR isoforms. Platinum-E cells (Cell Biolabs) were used for retrovirus packaging. Retrovirus was added to Ba/F3 cells. To ensure infection, 4 μg/mL polybrene was added and cells were spinfected. Infection efficiency was confirmed by measuring GFP-positive cells using a cell analyzer. Cells with an infection efficiency of 10% to 20% were further cultivated and puromycin selection with 1 μg/mL was initiated. As a control, parental Ba/F3 cells were used to show selection status. Selection was considered successful when parental Ba/F3 cells cultures died. To evaluate the transforming potential of EGFR mutations, the growth medium was no longer supplemented with IL-3. Ba/F3 cells harboring the empty vector were used as a control. A switch from IL-3 to EGF was performed for Ba/F3 cells with the wildtype EGFR known for its dependency on EGF ligand. Approximately ten days before conducting the experiments, puromycin was left out. For proliferation assays (data in table 13), Ba/F3 cells were seeded into 96-well plates at 5×10^3 cells/100 μL in growth media. Compounds were added by using a HP D3000 Digital Dispenser. All treatments were performed in technical triplicates. Treated cells were incubated for 72 h at 37° C. with 5% CO2. CellTiter-Glo® Luminescent Cell Viability Assay (Promega) was performed and chemoluminescence was measured by using the multilabel Plate Reader VICTOR X4. The raw data were imported into and analyzed with the Boehringer Ingelheim proprietary software MegaLab (curve fitting based on the program PRISM, GraphPad Inc.).
Background: Cellular ATP, detected with luciferase, serves as a proxy for viable cell number.
On to `Cn1cc(-c2cc(C(=O)/N=c3\[nH]c4ccccc4n3C3CCCCC3)ccn2)cn1` [I-015], for which the IC50 was 290 nM.
Same read-out and setting: with `Cn1cc(-c2cc(C(=O)/N=c3\[nH]c4ccccc4n3[C@H]3CC[C@@H](O)CC3)ccn2)cn1` [I-048] the figure was 52.1 nM.

Staying with this experiment, now noted: Mus musculus, BaF3, Ba/F3 EGFR L858R T790M C797S, read-out: IC50 EGFR L858R T790M C797S.
In the case of `Cn1cc(-c2cc(C(=O)/N=c3\[nH]c4ccccc4n3C3CCCCC3)ccn2)cn1` [I-015], the half-maximal inhibitory concentration (IC50) is 284 nM.
In the case of `Cn1cc(-c2cc(C(=O)/N=c3\[nH]c4ccccc4n3[C@H]3CC[C@@H](O)CC3)ccn2)cn1` [I-048], the 50% inhibitory concentration (IC50) worked out at 48.2 nM.

The same experiment, now with this note: Mus musculus, BaF3, Ba/F3 EGFR L858R T790M, read-out: IC50 EGFR L858R T790M.
On to `Cn1cc(-c2cc(C(=O)/N=c3\[nH]c4ccccc4n3C3CCCCC3)ccn2)cn1` [I-015], for which the IC50 was 408 nM.
On the same count and under the same terms, with `Cn1cc(-c2cc(C(=O)/N=c3\[nH]c4ccccc4n3[C@H]3CC[C@@H](O)CC3)ccn2)cn1` [I-048] the figure was 79.4 nM.

Still in this experiment, the particulars now being: Mus musculus, BaF3, Ba/F3 EGFR L858R, read-out: IC50 EGFR L858R.
Regarding `Cn1cc(-c2cc(C(=O)/N=c3\[nH]c4ccccc4n3C3CCCCC3)ccn2)cn1` [I-015], the IC50 came to 274 nM.
Still for that read-out and setting: next, `Cn1cc(-c2cc(C(=O)/N=c3\[nH]c4ccccc4n3[C@H]3CC[C@@H](O)CC3)ccn2)cn1` [I-048]: 39.2 nM.

The same experiment, now with this note: Mus musculus, BaF3, Ba/F3 EGFR del19, read-out: IC50 EGFR del19.
On to `Cn1cc(-c2cc(C(=O)/N=c3\[nH]c4ccccc4n3C3CCCCC3)ccn2)cn1` [I-015], for which the IC50 was found to be 45.8 nM.
In the case of `Cn1cc(-c2cc(C(=O)/N=c3\[nH]c4ccccc4n3[C@H]3CC[C@@H](O)CC3)ccn2)cn1` [I-048], the IC50 was determined as 10.9 nM.

The same experiment, now with this note: Mus musculus, BaF3, Ba/F3 EGFR del19 C797S, read-out: IC50 EGFR del19 C797S.
Turning to `Cn1cc(-c2cc(C(=O)/N=c3\[nH]c4ccccc4n3C3CCCCC3)ccn2)cn1` [I-015], the half-inhibitory concentration (IC50) turned out to be 21.1 nM.
Same read-out and setting: next, `Cn1cc(-c2cc(C(=O)/N=c3\[nH]c4ccccc4n3[C@H]3CC[C@@H](O)CC3)ccn2)cn1` [I-048]: 9.1 nM.

The same experiment, now with this note: Mus musculus, BaF3, Ba/F3 EGFR del19 T790M C797S, read-out: IC50 EGFR del19 T790M C797S.
For the compound `Cn1cc(-c2cc(C(=O)/N=c3\[nH]c4ccccc4n3C3CCCCC3)ccn2)cn1` [I-015], the IC50 worked out at 47 nM.
The same measure, in the same setting: next, `Cn1cc(-c2cc(C(=O)/N=c3\[nH]c4ccccc4n3[C@H]3CC[C@@H](O)CC3)ccn2)cn1` [I-048]: 12 nM.

Staying with this experiment, now noted: Mus musculus, BaF3, Ba/F3 EGFR del19 T790M, read-out: IC50 EGFR del19 T790M.
With `Cn1cc(-c2cc(C(=O)/N=c3\[nH]c4ccccc4n3C3CCCCC3)ccn2)cn1` [I-015], the IC50 is 169 nM.
Same read-out and setting: with `Cn1cc(-c2cc(C(=O)/N=c3\[nH]c4ccccc4n3[C@H]3CC[C@@H](O)CC3)ccn2)cn1` [I-048] the figure was 32.9 nM.

The test system of a further experiment is Ba/F3 cells with the wildtype EGFR. The experiment in a line: Ba/F3 proliferation assay (CellTiter-Glo viability), wildtype EGFR with EGF. The format is cell-based, murine. Particulars: Mus musculus, BaF3, Ba/F3 EGFR wt. As for the experimental part:
as §1, §2
For the compound `Cn1cc(-c2cc(C(=O)/N=c3\[nH]c4ccccc4n3C3CCCCC3)ccn2)cn1` [I-015], the concentration for half-maximal inhibition (IC50) is 2220 nM.
For the compound `Cn1cc(-c2cc(C(=O)/N=c3\[nH]c4ccccc4n3[C@H]3CC[C@@H](O)CC3)ccn2)cn1` [I-048], the IC50 amounted to 540 nM.

Another experiment has as its system Ba/F3 cells EGFR-indep. + IL-3. The experiment in a line: Ba/F3 proliferation assay (CellTiter-Glo viability), EGFR-independent cells with IL-3. Particulars: Mus musculus, BaF3, Ba/F3 EGFR-independent + IL-3. The format is cell-based, murine. The procedure: as §2
With `Cn1cc(-c2cc(C(=O)/N=c3\[nH]c4ccccc4n3C3CCCCC3)ccn2)cn1` [I-015], the IC50 was found to be 6520 nM.
The same measure, in the same setting: next, `Cn1cc(-c2cc(C(=O)/N=c3\[nH]c4ccccc4n3[C@H]3CC[C@@H](O)CC3)ccn2)cn1` [I-048]: 7940 nM.

The target of a further experiment is EGFR del19 T790M C797S protein in Ba/F3 cells (Homo sapiens, UniProt P00533, C797S/DEL746-750/T790M). The experiment in a line: pEGFR assay (AlphaScreen Surefire, EGFR Tyr1068 phosphorylation). The class given is cell-based.
EGFR del19 T790M C797S protein in Ba/F3 cells, sequence (P00533 with tags, fused parts or gaps C797S/DEL746-750/T790M limits assumed): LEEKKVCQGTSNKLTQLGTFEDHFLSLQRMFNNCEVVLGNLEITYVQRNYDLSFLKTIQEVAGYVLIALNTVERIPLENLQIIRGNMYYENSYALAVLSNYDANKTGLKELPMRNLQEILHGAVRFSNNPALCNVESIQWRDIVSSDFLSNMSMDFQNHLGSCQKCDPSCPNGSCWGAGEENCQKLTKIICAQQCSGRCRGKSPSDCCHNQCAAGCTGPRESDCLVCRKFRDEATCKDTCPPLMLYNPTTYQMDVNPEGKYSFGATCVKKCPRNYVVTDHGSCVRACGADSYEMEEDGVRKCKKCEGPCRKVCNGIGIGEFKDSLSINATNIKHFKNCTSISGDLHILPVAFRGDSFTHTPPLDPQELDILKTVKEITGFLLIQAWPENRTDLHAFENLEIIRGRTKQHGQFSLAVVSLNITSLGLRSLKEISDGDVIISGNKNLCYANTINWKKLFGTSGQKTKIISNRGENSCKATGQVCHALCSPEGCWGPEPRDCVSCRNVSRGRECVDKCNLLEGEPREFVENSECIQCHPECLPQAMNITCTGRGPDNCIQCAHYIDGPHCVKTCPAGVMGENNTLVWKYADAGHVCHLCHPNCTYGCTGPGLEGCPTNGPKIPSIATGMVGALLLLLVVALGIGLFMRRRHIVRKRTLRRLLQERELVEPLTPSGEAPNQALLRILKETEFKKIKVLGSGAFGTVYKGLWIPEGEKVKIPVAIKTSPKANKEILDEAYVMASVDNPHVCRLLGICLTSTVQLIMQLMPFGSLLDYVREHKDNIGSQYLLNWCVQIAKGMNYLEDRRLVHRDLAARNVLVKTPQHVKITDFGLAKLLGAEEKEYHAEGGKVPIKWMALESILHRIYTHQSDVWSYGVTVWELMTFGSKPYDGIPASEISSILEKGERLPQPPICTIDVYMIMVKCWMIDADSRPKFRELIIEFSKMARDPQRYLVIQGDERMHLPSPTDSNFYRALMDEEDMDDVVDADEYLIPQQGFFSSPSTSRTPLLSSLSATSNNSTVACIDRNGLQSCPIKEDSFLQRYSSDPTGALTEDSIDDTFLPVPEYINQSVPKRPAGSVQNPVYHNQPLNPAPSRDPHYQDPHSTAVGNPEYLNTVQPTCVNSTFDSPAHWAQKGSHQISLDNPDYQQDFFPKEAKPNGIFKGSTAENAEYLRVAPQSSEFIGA
Details: not given
The method in brief:
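Transduced Ba/F3 cells, puromycin-selected and grown IL-3 independent, were treated with compound at 60.000 cells/well for 4 h at 37° C. Lysis followed for 20 min at room temperature, and Tyr1068 phospho-EGFR in lysate was detected after 2 h dark incubation. Results are IC50 values.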
(In Alpha technology, singlet oxygen from a donor bead excites a nearby acceptor bead.)
With `Cn1cc(-c2cc(C(=O)/N=c3\[nH]c4ccccc4n3C3CCCCC3)ccn2)cn1` [I-015], the IC50 came out at 9 nM.
`Cn1cc(-c2cc(C(=O)/N=c3\[nH]c4ccccc4n3[C@H]3CC[C@@H](O)CC3)ccn2)cn1` [I-048] had an IC50 of 1 nM.

The next experiment deals with EGFR (d746-750 T790M C797S) (Homo sapiens (Human), UniProt P00533, C797S/DEL746-750/T790M). The experiment in a line: Biochemical EGFR inhibition assay (TR-FRET, poly-GT substrate), EGFR d746-750 T790M C797S. Conditions: 100 μM ATP. The procedure:
Biochemical EGFR Inhibition Assays
Initially, the inhibitory effect of compounds according to the invention is measured in biochemical assays which measure the phosphorylation activity of EGFR enzyme forms on poly-GT substrate in the presence of different concentrations of ATP (5 μM and 100 μM final assay concentration).
The following enzyme forms of EGFR are representative examples that can be used in these assays at the given concentrations:
For the chosen highest assay concentration of 100 μM, 150 nL of compound solution is transferred from a 10 mM DMSO compound stock solution. A series of eleven fivefold dilutions per compound is transferred to the assay plate, compound dilutions are tested in duplicates. DMSO is added as backfill to a total volume of 150 nL. The assay runs on a fully automated robotic system.
These biochemical EGFR enzyme form compound dose-response assays quantify the kinase activity via phosphorylation of a tagged poly-GT substrate. The results of the assay are provided as IC50 values.
In general terms: In TR-FRET formats the signal depends on donor and acceptor labels being close together.
`Cn1cc(-c2cc(C(=O)/N=c3\[nH]c4ccccc4n3C3CCCCC3)ccn2)cn1` [I-015]: it took 2 nM to reach half-maximal inhibition (IC50).

A further experiment has as its target EGFR (mutated) 695-1022, T790M, C797S, L858R (Homo sapiens (Human), UniProt P00533, C797S/L858R/T790M). The experiment in a line: Biochemical EGFR inhibition assay (TR-FRET, poly-GT substrate), EGFR T790M C797S L858R. Particulars: read-out: LR_TM_CS (5 μM ATP) IC50; 5 μM ATP. The method in brief: (§3)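 Phosphorylation of tagged poly-GT substrate by EGFR forms measured at 5 μM and 100 μM ATP (final). Top compound concentration 100 μM, eleven fivefold dilutions, in duplicate. Results given as IC50.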
For the compound `Cn1cc(-c2cc(C(=O)/N=c3\[nH]c4ccccc4n3C3CCCCC3)ccn2)cn1` [I-015], the IC50 was 0.8 nM.
The same measure, in the same setting: next, `Cn1cc(-c2cc(C(=O)/N=c3\[nH]c4ccccc4n3[C@H]3CC[C@@H](O)CC3)ccn2)cn1` [I-048]: 0.4 nM.

Staying with this experiment, now noted: read-out: LR_TM_CS (100 μM ATP) IC50; 100 μM ATP.
On to `Cn1cc(-c2cc(C(=O)/N=c3\[nH]c4ccccc4n3C3CCCCC3)ccn2)cn1` [I-015], for which the IC50 is 10.5 nM.
The same measure, in the same setting: with `Cn1cc(-c2cc(C(=O)/N=c3\[nH]c4ccccc4n3[C@H]3CC[C@@H](O)CC3)ccn2)cn1` [I-048] the figure was 5.7 nM.

The next experiment concerns the target EGFR wt (Homo sapiens (Human), UniProt P00533). The experiment in a line: Biochemical EGFR inhibition assay (TR-FRET, poly-GT substrate), EGFR wt. Particulars: read-out: wt (5 μM ATP) IC50; 5 μM ATP. The method in brief:
as §3
Consider `Cn1cc(-c2cc(C(=O)/N=c3\[nH]c4ccccc4n3C3CCCCC3)ccn2)cn1` [I-015], for which the IC50 turned out to be 125 nM.
Consider `Cn1cc(-c2cc(C(=O)/N=c3\[nH]c4ccccc4n3[C@H]3CC[C@@H](O)CC3)ccn2)cn1` [I-048], for which the IC50 was 32.3 nM.

Staying with this experiment, now noted: read-out: wt (100 μM ATP) IC50; 100 μM ATP.
For the compound `Cn1cc(-c2cc(C(=O)/N=c3\[nH]c4ccccc4n3C3CCCCC3)ccn2)cn1` [I-015], the 50% inhibitory concentration (IC50) is 114 nM.
The same measure, in the same setting: with `Cn1cc(-c2cc(C(=O)/N=c3\[nH]c4ccccc4n3[C@H]3CC[C@@H](O)CC3)ccn2)cn1` [I-048] the figure was 1310 nM.

One may read the IC50 as the midpoint of a concentration-inhibition curve.
